Reference: patent US20040208844A1, “Products and drug delivery vehicles” (priority 2001, published 2004)

Molecular target: T1, Human placenta or human platelet vitronectin receptor, αvβ3 (Homo sapiens, UniProt P05106+P06756)
T1 construct: Human placenta or human platelet vitronectin receptor, αvβ3; from tissue; host or cells: human placenta or human platelets
Assay: [3H]-SK&F-107260 vitronectin receptor binding assay
Details: sample dissolved in 1:1 TBS:DMSO; 5 nM [3H]-SK&F-107260
Description: In vitro binding affinity of conjugates, polymeric micelles and polymer therapeutics of the present invention may be determined by receptor binding assays such as are known in the art. Conjugates, polymeric micelles and polymer therapeutics of the present invention will have a Ki (the dissociation constant of the antagonist) according to a receptor binding assay in the nanomolar to micromolar range, preferably in the nanomolar range.
The following samples were prepared for an in vitro binding assay:
Solution #1: polymer-receptor antagonist conjugate according to Example 3b, dissolved in TBS at a concentration of 10 milliMole of VRA 1.
Solution #2: PEG-PLA copolymer according to Example 2B, dissolved in TBS at a concentration of 50 mg/ml;
Solution #3: VRA 1 dissolved in 1:1 TBS:DMSO at a concentration of 10 milliMole;
Solution #4: polymer-receptor antagonist conjugate according to Example 3b, dissolved in 1:1 TBS:DMSO at a concentration of 10 milliMole VRA 1; and […]
Binding studies were carried out according to the method described by Wong et al., Studies on alphavbeta3/ligand interactions using a (^3H)SK&F-107260 binding assay, Mol. Pharmacology, 1996, 50, 529-537. […] After one hour incubation at room temperature, the wells were aspirated completely and washed twice with 100 ul of ice-cold Buffer A. Bound [^3H]-SK&F-107260 was solubilized and counted.

T1 sequence (P06756 31-889 limits assumed): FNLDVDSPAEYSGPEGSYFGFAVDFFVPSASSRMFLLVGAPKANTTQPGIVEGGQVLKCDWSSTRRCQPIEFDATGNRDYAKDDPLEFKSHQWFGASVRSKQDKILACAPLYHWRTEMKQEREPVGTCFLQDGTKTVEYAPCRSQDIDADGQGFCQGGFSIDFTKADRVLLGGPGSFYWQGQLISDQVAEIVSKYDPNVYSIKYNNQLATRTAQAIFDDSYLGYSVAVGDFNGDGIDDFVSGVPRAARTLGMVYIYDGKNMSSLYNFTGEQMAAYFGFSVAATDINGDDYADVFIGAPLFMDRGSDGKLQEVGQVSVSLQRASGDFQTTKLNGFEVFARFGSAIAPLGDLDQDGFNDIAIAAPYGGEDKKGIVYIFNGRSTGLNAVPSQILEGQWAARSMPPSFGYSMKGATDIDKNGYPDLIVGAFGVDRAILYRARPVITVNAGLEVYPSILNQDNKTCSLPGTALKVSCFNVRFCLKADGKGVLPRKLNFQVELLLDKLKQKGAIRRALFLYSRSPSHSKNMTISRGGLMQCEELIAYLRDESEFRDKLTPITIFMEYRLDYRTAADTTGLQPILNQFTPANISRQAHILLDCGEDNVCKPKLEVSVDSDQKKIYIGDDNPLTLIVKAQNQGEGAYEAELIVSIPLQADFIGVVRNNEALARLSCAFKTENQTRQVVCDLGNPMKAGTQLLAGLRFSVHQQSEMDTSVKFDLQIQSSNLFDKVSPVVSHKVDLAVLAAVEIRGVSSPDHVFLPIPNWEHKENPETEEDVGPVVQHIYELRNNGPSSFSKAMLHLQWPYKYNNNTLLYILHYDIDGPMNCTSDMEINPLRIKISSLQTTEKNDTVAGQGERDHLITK
T1 sequence (P06756 891-1048 partner limits assumed): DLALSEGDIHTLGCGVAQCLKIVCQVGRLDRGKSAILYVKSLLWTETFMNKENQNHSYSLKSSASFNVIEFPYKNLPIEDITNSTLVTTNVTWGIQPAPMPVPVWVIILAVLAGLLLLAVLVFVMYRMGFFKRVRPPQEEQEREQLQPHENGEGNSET
T1 sequence (P05106 27-788): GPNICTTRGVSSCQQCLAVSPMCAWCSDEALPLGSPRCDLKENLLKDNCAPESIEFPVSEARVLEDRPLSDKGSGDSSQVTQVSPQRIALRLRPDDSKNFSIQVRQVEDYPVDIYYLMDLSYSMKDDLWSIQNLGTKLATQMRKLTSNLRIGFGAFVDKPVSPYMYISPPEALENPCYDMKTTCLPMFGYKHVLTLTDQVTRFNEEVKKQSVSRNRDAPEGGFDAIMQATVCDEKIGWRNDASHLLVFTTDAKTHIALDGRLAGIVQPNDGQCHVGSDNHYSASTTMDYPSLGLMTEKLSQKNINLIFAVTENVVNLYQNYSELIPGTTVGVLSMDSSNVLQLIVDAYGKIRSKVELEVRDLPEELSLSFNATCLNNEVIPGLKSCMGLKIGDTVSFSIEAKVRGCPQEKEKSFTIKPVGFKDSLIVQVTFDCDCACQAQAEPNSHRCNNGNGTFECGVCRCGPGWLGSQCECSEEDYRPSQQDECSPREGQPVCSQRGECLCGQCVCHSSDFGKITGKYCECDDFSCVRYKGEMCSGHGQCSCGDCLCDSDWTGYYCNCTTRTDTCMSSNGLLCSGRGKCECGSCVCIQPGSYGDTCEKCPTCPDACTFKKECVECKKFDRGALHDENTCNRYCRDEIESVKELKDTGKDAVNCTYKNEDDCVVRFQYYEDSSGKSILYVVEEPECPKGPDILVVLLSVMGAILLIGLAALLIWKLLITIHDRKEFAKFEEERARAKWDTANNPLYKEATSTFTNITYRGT

CN1Cc2cc(C(=O)N(CCCCN)Cc3nc4ccccc4[nH]3)ccc2N[C@@H](CC(=O)O)C1=O [VRA 1, (S)-7-[[N-(4-Aminobutyl)-N-(benzimidazol-2-ylmethyl)]amino]carbonyl-4-methyl-3-oxo-2,3,4,5-tetrahydro-1H-1,4-benzodiazepine-2-acetic acid]
Ki: 1.7 nM
